Test results reported in patent US9169241B2, “Quinolinyloxyphenylsulfonamides” (Max-Planck-Gesellschaft Zur Forderung der Wissenschaften …, priority 2009, dated 2015).
Read-outs that look alike come from different tables or passages of the source.

Columns and labels:
Hs578T [1] = assay: Cell vitality assay (ATP assay, CellTiter-Glo); type: cell-based; conditions: Homo sapiens, Hs-578T; HS578T cell line, 72 h; Table Ib; read-out: IC50 ATP-Assay HS578T after 72 h
Protocol: (§1) The CellTiter-Glo® Luminescent Cell Viability Assay (Promega Corporation. Madison, Wis., USA) is method a determining the number of viable cells in culture based on quantification of the ATP being present which is an indicator of metabolically active cells was used according to manufacturers protocol, In detail the assay was performed in a 96 well format were 1000 cells/well were incubated with indicated compound at concentration of 12.5 μM, 6.25 μM, 3.125 μM, 1.56 μM, 0.78 μM, 0.39 μM, 0.195 μM as well as DMSO control for 72 h in 100 μl cell culture medium. IC50 values were calculated as 50% of ATP amount compared to DMSO control.
Protocol for the CellTiter-Glo® Luminescent Cell Viability Assay • 1. Prepare opaque-walled multiwell plates with mammalian cells in culture medium, 100 μl per well for 96-well plates • 2. Prepare control wells containing medium without cells to obtain a value for background luminescence. • 3. Add the compound to be tested to experimental wells, and incubate according to culture protocol. • 4. Equilibrate the plate and its contents at room temperature for approximately 30 minutes. • 5. Add a volume of CellTiter-Glo® Reagent (Promega Corporation. Madison, Wis.) equal to the volume of cell culture medium present in each well. • 6. Mix contents for 2 minutes on an orbital shaker to induce cell lysis. • 7. Allow the plate to incubate at room temperature for 10 minutes to stabilize luminescent signal. • 8. Record luminescence on Microplate Luminometer LB96V (Berthold Tchnologies, Bad Wildbad, Germany). An integration time of 0.1 and 1 second per well

Hs578T [2] = assay: Matrigel outgrowth assay/branching assay; type: cell-based; conditions: Homo sapiens, Hs-578T; HS578T cell line; Table Ib; read-out: Total branching inhibition in Matrigel HS578T
Protocol: The Matrigel outgrowth assay is based on the ability of tumor cell to penetrate a solid gel of extracellular matrix proteins mimicking the metastasis formation in vivo. While cells with low invasive potential appear as roundish cell or cell cluster, cells with high invasive potential penetrate the Matrigel and form polymorphic structures. In detail 65 μl of Matrigel matrix (Matrigel™ Matrix, BD Biosciences, Bedford, Mass., USA) with a concentration of 3 mg/ml have been polymerized in 96 well plates for 1 h at 37° C. Subsequently 5000 cell/well were seeded into each well containing cell culture medium and indicated compound with concentrations of 3.125 μM, 1.56 μM and 0.78 μM as well as DMSO control. After 48 h, 72 h and 96 h images of cell were taken on an inverted microscope using a 5× objective (Zeiss Axiovert S100 microscope Carl Zeiss UK, Welwyn Garden City, UK). Only compound concentrations were total branching inhibition was evident were accounted as positive. Method was used as previously described, with some modifications (Thompson E W, et al. Association of increased basement membrane invasiveness with absence of estrogen receptor and expression of vimentin in human breast cancer cell lines. J Cell Physiol 1992; 150:534-44).

Hs578T [3] = assay: Wound healing migration assay; type: cell-based; conditions: Homo sapiens, Hs-578T; HS578T cell line; Table Ib
Protocol: This method mimics cell migration during wound healing in vivo. The basic steps involve creating a “wound” in a cell monolayer, capturing the images at the beginning and at regular intervals during cell migration to close the wound, and comparing the images to quantify the migration rate of the cells. In detail, 150000 cell/24 well have been seeded and allowed to form a monolayer overnight. Subsequently a “wound” or “scratch” has been performed with a 1000 μl pipette tip. The STDV of wound size is normally below 10% at time point t0. The assay was stopped by fixation with 0.05% Crystal violet/20% methanol when control scratches were closed. The assay was terminated between 48 h and 72 h depending on the migration potential of the indicated cell line. The “wounds” were visualized with a Zeiss Axiovert S100 microscope (Carl Zeiss UK, Welwyn Garden City, UK). The tested compounds were used at 12.5 μM, 6.25, 3.125 μM and DMSO control. IC50 values have been calculated as 50% wound size in between t0 and t48 or t72.

viable cells in culture = assay: Cell viability assay at 10 μM (CellTiter-Glo, Table VII); type: cell-based; conditions: compound 10 μM, 72 h;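 also: graded A 0-20%; B 21-40%; C 41-60%; D over 60% viable cells relative to DMSO control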
Protocol: as §1, with “protocol.” for “protocol,”, “with” for “with indicated”, “10” for “of 12.5 μM, 6.25 μM, 3.125 μM, 1.56 μM, 0.78 μM, 0.39 μM, 0.195”, “Percentage of inhibition was” for “IC50 values were”, “compared to” for “as 50% of”, “of” for “compared to”

[4] = Homo sapiens, HCT-116, HCT116 def, read-out: percentage (%) of viable cells HCT 116def
[5] = Homo sapiens, HCT-116, HCT116 wt, read-out: percentage (%) of viable cells HCT 116wt
[6] = Homo sapiens, HT-29, HT29, read-out: percentage (%) of viable cells HT29
[7] = Homo sapiens, NCI-H358, H358, read-out: percentage (%) of viable cells H358
[8] = Homo sapiens, NCI-H1650, H1650, read-out: percentage (%) of viable cells H1650
[9] = Homo sapiens, NCI-H1666, H1666, read-out: percentage (%) of viable cells H1666
[10] = Homo sapiens, NCI-H1975, H1975, read-out: percentage (%) of viable cells H1975
[11] = Homo sapiens, NCI-H1993, H1993, read-out: percentage (%) of viable cells H1993
[12] = Homo sapiens, A549, read-out: percentage (%) of viable cells A549
[13] = Homo sapiens, HCC827, read-out: percentage (%) of viable cells HCC827
[14] = Homo sapiens, SW480, read-out: percentage (%) of viable cells SW480
[15] = RKO, read-out: percentage (%) of viable cells RKO

| Compound | IC50 (Hs578T [1]) [µM] | melting point [°C] | IC50 (Hs578T [2]) [µM] | IC50 (Hs578T [3]) [µM] | viability at 10 µM (viable cells in culture; [4]) [%] | viability at 10 µM (viable cells in culture; [5]) [%] | viability at 10 µM (viable cells in culture; [6]) [%] | viability at 10 µM (viable cells in culture; [7]) [%] | viability at 10 µM (viable cells in culture; [8]) [%] | viability at 10 µM (viable cells in culture; [9]) [%] | viability at 10 µM (viable cells in culture; [10]) [%] | viability at 10 µM (viable cells in culture; [11]) [%] | viability at 10 µM (viable cells in culture; [12]) [%] | viability at 10 µM (viable cells in culture; [13]) [%] | viability at 10 µM (viable cells in culture; [14]) [%] | viability at 10 µM (viable cells in culture; [15]) [%] |
| --- | --- | --- | --- | --- | --- | --- | --- | --- | --- | --- | --- | --- | --- | --- | --- | --- |
| COc1cc2c(Oc3ccc(NS(=O)(=O)c4ccn(C)n4)cc3F)ccnc2cc1OCCCN1CCC(C)CC1 [Example 164, 1-Methyl-1H-pyrazole-3-sulfonic acid (3-fluoro-4-{6-methoxy-7-[3-(4-methyl-piperidin-1-yl)-propoxy]-quinolin-4-yloxy}-phenyl)-amide] | ≤ 12.5 | 165 to 166 | 10 to 25 | 12.5 to 50 | – | – | – | – | – | – | – | – | – | – | – | – |
| COc1cc2c(Oc3ccc(NS(=O)(=O)c4c(C)nn(C)c4C)cc3F)ccnc2cc1OCCCN1CCC(C)CC1 [Example 160, 1,3,5-Trimethyl-1H-pyrazole-4-sulfonic acid (3-fluoro-4-{6-methoxy-7-[3-(4-methyl-piperidin-1-yl)-propoxy]-quinolin-4-yloxy}-phenyl)-amide] | ≤ 12.5 | 88 to 90 | 10 to 25 | ≤ 12.5 | – | – | – | – | – | – | – | – | – | – | – | – |
| COc1cc2c(Oc3cccc(NS(=O)(=O)c4ccc(C)s4)c3)ccnc2cc1OCCCN1CCN(C)CC1 [Example 131, 5-Methyl-thiophene-2-sulfonic acid (3-{6-methoxy-7-[3-(4-methyl-piperazin-1-yl)-propoxy]-quinolin-4-yloxy}-phenyl)-amide] | ≤ 12.5 | 147 to 149 | 10 to 25 | 12.5 to 50 | – | – | – | – | – | – | – | – | – | – | – | – |
| COc1cc2c(Oc3cccc(NS(=O)(=O)c4c(C)noc4C)c3)ccnc2cc1OCCCN1CCN(C)CC1 [Example 138, 3,5-Dimethyl-isoxazole-4-sulfonic acid (3-{6-methoxy-7-[3-(4-methyl-piperazin-1-yl)-propoxy]-quinolin-4-yloxy}-phenyl)-amide] | 12.5 to 50 | 200 to 202 | 10 to 25 | 12.5 to 50 | – | – | – | – | – | – | – | – | – | – | – | – |
| COc1cc2c(Oc3cc(NS(=O)(=O)c4cc(F)ccc4F)ccc3F)ccnc2cc1OCCCN1CCC(C)CC1 [Example 187, 2,5-Difluoro-N-(4-fluoro-3-{6-methoxy-7-[3-(4-methyl-piperidin-1-yl)-propoxy]-quinolin-4-yloxy}-phenyl)-benzenesulfonamide] | ≤ 12.5 | – | ≤ 10 | ≤ 12.5 | – | – | – | – | – | – | – | – | – | – | – | – |
| COc1cc2c(Oc3ccc(NS(=O)(=O)c4cnc(C)[nH]4)cc3F)ccnc2cc1OCCCN1CCOCC1 [Example 169, 2-Methyl-3H-imidazole-4-sulfonic acid {3-fluoro-4-[6-methoxy-7-(3-morpholin-4-yl-propoxy)-quinolin-4-yloxy]-phenyl}-amide] | 12.5 to 50 | – | 10 to 25 | 12.5 to 50 | – | – | – | – | – | – | – | – | – | – | – | – |
| COc1cc2c(Oc3ccc(NS(=O)(=O)c4ccc(F)c(Cl)c4)cc3F)ccnc2cc1OCCCN1CCN(C)CC1 [Example 23, 3-Chloro-4-fluoro-N-(3-fluoro-4-{6-methoxy-7-[3-(4-methyl-piperazin-1-yl)-propoxy]-quinolin-4-yloxy}-phenyl)-benzenesulfonamide] | – | 108 to 110 | – | – | 0 to 20 | 0 to 20 | 0 to 20 | 0 to 20 | 21 to 40 | 21 to 40 | 0 to 20 | 0 to 20 | 41 to 60 | 21 to 40 | 0 to 20 | 0 to 20 |
| COc1cc2c(Oc3ccc(NS(=O)(=O)c4ccccc4Br)cc3F)ccnc2cc1OCCCN1CCN(C)CC1 [Example 19, 2-Bromo-N-(3-fluoro-4-{6-methoxy-7-[3-(4-methyl-piperazin-1-yl)-propoxy]-quinolin-4-yloxy}-phenyl)-benzenesulfonamide] | – | 98 to 101 | – | – | 21 to 40 | 0 to 20 | 0 to 20 | 0 to 20 | 21 to 40 | 21 to 40 | 21 to 40 | 0 to 20 | 21 to 40 | 21 to 40 | 0 to 20 | 0 to 20 |
| COc1cc2c(Oc3ccc(NS(=O)(=O)c4cccc(-c5ccccc5)c4)cc3F)ccnc2cc1OCCCN1CCN(C)CC1 [Example 13, Biphenyl-3-sulfonic acid (3-fluoro-4-{6-methoxy-7-[3-(4-methyl-piperazin-1-yl)-propoxy]-quinolin-4-yloxy}-phenyl)-amide] | – | 190 to 191 | – | – | 0 to 20 | 0 to 20 | 0 to 20 | 0 to 20 | 21 to 40 | 0 to 20 | 0 to 20 | 0 to 20 | 21 to 40 | 0 to 20 | 0 to 20 | 0 to 20 |
| COc1cc2c(Oc3ccc(NS(=O)(=O)c4ccc(Cl)cc4F)cc3F)ccnc2cc1OCCCN1CCCCC1 [Example 3, 4-Chloro-2-fluoro-N-{3-fluoro-4-[6-methoxy-7-(3-piperidin-1-yl-propoxy)-quinolin-4-yloxy]-phenyl}-benzenesulfonamide] | – | 122 to 124 | – | – | 0 to 20 | 0 to 20 | 0 to 20 | 0 to 20 | 41 to 60 | 41 to 60 | 21 to 40 | 21 to 40 | 21 to 40 | > 60 | 0 to 20 | 0 to 20 |
| COc1cc2c(Oc3ccc(NS(=O)(=O)c4cccc(F)c4)cc3F)ccnc2cc1OCCCN1CCN(C)CC1 [Example 22] | – | 82 to 84 | – | – | 21 to 40 | 21 to 40 | 0 to 20 | 0 to 20 | 21 to 40 | 21 to 40 | 0 to 20 | 0 to 20 | > 60 | 21 to 40 | 0 to 20 | 21 to 40 |
